In patent US7671061B2, “Methods and compositions for treating pain” (Hydra Biosciences, Inc., priority 2005, dated 2010):
pIC50: −log10 of the molar value. Where two headings read alike, the source gives them in different places.

What was measured:
hTRPA1 [1] = target: T1, hTRPA1 (Homo sapiens, UniProt O75762, K186N); test: TRPA1 patch clamp (perforated patch, AITC-activated current); format: cell-based
T1 construct: expressed in transfected cells; host or cells: HEK293/TREx (Invitrogen), induced with tetracycline
Text: Patch clamp experiments permit the detection of currents through the TRPA1 channel in the cell line described above. To permit recording of current at a stable level and prevent the “rundown” observed by other labs, it is necessary to use the perforated patch technique, which prevents dialysis of the cytoplasm with the pipette solution. In normal whole-cell patch clamp recordings, a glass electrode is brought into contact with a single cell and a high-resistance (gigaohm) seal is established with the cell membrane. The membrane is then ruptured to achieve the whole-cell configuration, permitting control of the voltage of the cell membrane and measurement of currents flowing across the membrane using the amplifier attached to the electrode and resulting in the replacement of cytoplasm with the pipette solution. In contrast, in the perforated patch mode, an antibiotic, amphotericin, is present in the pipette solution and diffuses into contact with the cell after the seal is achieved, over the course of several minutes. The amphotericin forms ion-permeable pores in the membrane under the pipette, permitting passage of some ions but maintaining most native cytosolic components. A perfusion system permits control of the extracellular solution, including the addition of blockers and activators of the current. The current can be activated by addition of 5 μM AITC to the solution. […] In some cases, cells were grown in low density overnight on glass coverslips. Patch clamp recordings were made in the whole-cell mode with a holding potential of −40 mV. Every 5 seconds, a voltage ramp was applied from −120 to +100 mV, 400 ms in duration. Currents elicited were quantified at −80 mV and +80 mV. […] The external solution consisted of 150 mM NaCl, 4.5 mM KCl, 3 mM MgCl2, 10 mM HEPES, […], 1 mM EGTA, pH 7.4. Upon addition of AITC, TRPA1 current was induced only in TRPA1-expressing cells and not in parental HEK293 TREx cells. Removal of the AITC stimulus causes most of the current to go away. Potential blockers were tested for ability to block both inward and outward currents in the continued presence of AITC.

hTRPA1 [2] = target: T1, hTRPA1; test: High throughput Ca2+ fluorescence (Fluo4) assay, AITC stimulation; format: cell-based
Method in brief: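 Read-out is Fluo4 fluorescence, proportional to [Ca2+]i, over ~3 min after AITC challenge, following 2 min compound pre-exposure in HEK293/TREx cells induced with 1 μg/ml tetracycline. Dye: 1 μM, 60 min, room temperature.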

hERG = hERG (Homo sapiens, UniProt Q12809); test: hERG patch clamp (Qpatch) selectivity; settings: for selectivity ratio: human, selective for TRPA1 over hERG
hNaV1.2 = hNaV1.2 (Homo sapiens, UniProt Q99250); test: hNaV1.2 patch clamp (Qpatch) selectivity; format: cell-based
hTRPV3 = target: T2, hTRPV3 (Homo sapiens, UniProt Q8NET8); test: hTRPV3 patch clamp selectivity; format: cell-based; settings: Table 2
T2 sequence (Q8NET8 1-790): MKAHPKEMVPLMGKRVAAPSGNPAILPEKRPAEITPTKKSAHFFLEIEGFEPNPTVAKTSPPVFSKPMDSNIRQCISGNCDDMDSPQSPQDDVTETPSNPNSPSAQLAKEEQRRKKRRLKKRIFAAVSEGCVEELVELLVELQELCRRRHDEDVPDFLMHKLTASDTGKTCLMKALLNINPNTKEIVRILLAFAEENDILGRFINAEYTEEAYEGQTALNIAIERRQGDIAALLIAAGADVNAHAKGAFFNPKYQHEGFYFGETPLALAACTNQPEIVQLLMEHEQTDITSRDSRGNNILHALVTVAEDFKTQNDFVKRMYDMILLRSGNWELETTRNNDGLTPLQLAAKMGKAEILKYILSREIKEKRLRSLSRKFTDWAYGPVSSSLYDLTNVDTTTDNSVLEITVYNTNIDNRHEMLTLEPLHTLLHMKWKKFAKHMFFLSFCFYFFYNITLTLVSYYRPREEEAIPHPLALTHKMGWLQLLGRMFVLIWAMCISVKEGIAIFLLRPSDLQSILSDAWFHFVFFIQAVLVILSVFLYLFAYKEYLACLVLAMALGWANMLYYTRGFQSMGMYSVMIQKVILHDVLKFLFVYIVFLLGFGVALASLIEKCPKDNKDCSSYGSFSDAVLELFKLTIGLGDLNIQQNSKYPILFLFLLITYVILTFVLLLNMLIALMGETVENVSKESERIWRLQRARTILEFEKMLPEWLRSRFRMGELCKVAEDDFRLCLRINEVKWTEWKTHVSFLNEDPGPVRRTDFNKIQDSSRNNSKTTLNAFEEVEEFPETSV

[3] = Table 1, read-out: hTRPA1 Patch IC50
[4] = Table 1, read-out: hTRPA1 Fluo4 IC50
[5] = Table 2, inward current, read-out: hTRPA1 Patch Inwd IC50
[6] = Table 2, read-out: hTRPA1 Fluor IC50
[7] = Table 2, read-out: hNaV1.2 IC50

T1 sequence (O75762 whole entry K186N): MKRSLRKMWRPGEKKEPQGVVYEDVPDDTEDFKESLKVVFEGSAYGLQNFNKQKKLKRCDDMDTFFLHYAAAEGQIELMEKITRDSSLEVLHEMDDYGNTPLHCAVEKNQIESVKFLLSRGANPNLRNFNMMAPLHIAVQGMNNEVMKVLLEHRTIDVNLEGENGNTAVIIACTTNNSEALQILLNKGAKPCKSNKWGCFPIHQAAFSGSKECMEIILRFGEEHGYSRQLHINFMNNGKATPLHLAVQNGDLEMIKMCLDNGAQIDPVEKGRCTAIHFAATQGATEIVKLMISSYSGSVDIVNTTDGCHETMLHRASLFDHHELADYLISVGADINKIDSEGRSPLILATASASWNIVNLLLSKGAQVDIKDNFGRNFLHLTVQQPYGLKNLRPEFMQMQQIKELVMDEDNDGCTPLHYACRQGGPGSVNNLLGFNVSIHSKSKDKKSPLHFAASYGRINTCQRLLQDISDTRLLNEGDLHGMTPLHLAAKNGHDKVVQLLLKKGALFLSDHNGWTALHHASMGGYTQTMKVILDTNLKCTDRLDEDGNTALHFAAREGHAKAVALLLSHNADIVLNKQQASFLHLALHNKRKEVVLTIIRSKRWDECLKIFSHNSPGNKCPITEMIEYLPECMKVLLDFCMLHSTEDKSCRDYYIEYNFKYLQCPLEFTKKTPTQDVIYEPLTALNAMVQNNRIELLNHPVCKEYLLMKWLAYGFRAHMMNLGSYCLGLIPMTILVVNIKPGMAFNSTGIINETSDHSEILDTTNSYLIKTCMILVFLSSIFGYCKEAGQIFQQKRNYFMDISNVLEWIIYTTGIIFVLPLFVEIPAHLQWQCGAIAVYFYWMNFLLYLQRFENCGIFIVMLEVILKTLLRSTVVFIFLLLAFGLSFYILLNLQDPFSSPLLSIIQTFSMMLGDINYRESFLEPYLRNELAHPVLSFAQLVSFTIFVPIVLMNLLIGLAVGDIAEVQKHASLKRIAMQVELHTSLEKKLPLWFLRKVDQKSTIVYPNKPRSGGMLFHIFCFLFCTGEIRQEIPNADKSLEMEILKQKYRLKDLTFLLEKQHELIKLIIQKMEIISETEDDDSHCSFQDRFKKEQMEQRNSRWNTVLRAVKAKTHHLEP
Chain of hNaV1.2 (Q99250 whole entry): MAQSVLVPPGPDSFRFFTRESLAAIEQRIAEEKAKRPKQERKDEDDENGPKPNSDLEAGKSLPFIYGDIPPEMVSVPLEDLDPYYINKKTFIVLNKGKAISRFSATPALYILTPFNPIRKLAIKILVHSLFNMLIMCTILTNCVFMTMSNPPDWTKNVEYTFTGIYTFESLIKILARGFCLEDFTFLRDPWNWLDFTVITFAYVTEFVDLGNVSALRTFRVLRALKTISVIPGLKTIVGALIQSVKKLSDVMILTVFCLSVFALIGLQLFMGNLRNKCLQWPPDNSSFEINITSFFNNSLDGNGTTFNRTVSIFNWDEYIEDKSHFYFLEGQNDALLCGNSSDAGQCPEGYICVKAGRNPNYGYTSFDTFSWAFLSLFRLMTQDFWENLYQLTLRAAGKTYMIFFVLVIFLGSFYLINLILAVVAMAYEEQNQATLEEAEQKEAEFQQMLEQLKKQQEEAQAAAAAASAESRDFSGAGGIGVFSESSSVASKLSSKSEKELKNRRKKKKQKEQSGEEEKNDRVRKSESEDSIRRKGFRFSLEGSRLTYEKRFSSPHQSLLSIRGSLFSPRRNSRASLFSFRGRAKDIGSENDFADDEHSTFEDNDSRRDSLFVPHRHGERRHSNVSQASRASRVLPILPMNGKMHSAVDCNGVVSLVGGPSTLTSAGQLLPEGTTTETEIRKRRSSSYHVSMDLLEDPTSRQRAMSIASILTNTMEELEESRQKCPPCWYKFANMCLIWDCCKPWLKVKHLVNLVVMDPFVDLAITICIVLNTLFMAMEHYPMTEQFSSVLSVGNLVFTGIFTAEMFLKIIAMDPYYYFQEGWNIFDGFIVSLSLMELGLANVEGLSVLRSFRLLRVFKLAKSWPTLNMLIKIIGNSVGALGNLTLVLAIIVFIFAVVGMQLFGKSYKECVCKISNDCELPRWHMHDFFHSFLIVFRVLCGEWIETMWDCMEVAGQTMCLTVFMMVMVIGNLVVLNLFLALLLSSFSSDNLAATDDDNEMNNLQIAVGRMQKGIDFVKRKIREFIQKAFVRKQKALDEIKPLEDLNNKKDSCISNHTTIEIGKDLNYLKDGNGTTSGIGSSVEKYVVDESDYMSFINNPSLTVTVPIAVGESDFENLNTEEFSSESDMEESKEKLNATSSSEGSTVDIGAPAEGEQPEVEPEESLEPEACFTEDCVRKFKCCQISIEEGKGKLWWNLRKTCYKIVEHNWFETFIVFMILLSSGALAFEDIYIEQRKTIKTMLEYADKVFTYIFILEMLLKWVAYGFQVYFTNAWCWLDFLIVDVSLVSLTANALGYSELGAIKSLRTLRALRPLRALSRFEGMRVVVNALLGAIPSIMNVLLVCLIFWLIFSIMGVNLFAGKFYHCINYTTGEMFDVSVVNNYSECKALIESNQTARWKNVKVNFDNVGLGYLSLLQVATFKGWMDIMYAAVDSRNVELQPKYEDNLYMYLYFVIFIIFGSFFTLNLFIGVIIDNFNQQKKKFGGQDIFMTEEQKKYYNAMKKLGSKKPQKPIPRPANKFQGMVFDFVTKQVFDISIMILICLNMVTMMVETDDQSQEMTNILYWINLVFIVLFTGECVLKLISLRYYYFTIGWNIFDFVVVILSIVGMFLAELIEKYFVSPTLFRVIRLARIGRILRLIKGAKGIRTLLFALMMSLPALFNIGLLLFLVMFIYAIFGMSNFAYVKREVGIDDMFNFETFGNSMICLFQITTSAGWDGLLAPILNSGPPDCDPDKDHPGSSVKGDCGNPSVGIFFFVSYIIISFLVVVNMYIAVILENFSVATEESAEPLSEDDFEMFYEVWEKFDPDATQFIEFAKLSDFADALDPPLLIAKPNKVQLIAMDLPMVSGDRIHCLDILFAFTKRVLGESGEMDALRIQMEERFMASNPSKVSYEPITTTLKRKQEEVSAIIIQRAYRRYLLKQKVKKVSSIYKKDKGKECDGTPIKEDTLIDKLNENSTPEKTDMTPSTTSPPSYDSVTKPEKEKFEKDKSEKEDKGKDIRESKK
Chain of hERG (Q12809 whole entry): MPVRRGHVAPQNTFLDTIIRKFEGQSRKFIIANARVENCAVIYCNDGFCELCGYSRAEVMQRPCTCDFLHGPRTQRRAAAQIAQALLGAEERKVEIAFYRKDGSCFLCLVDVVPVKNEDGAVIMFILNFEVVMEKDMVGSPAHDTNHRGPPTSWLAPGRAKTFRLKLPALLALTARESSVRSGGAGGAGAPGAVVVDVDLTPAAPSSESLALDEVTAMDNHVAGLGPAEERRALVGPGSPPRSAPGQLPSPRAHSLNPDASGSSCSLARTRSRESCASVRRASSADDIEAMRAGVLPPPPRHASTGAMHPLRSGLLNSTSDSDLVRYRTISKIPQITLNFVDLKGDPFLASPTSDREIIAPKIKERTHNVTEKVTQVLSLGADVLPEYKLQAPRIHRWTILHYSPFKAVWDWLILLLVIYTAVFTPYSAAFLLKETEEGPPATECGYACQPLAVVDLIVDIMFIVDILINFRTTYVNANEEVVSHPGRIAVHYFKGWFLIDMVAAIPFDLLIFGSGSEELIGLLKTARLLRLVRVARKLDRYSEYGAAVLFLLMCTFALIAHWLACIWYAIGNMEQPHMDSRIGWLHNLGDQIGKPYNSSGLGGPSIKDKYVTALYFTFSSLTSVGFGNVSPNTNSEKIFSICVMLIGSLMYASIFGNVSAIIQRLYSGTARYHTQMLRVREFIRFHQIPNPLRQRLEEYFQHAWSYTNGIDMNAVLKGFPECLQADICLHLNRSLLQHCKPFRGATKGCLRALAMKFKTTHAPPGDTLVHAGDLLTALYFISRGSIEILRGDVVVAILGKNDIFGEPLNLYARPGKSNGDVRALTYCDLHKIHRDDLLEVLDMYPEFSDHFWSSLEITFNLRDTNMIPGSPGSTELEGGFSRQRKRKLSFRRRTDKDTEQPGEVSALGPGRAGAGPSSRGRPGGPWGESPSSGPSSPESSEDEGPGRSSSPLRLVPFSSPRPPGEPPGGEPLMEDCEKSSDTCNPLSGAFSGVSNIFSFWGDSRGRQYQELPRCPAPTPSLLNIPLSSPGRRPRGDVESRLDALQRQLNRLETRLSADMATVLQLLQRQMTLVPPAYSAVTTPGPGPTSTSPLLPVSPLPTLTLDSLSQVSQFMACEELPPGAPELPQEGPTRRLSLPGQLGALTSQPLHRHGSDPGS

| Compound | pIC50 (hTRPA1 [1]; [5]) | pIC50 (hTRPA1 [2]; [6]) | also measured |
| --- | --- | --- | --- |
| CCOC(=O)C1=C(c2ccccc2)NC(=S)NC1c1ccccc1Cl (stereo not drawn) | – | – | pIC50 (hTRPA1 [1]; [3]): ≥ 5.30; pIC50 (hTRPA1 [2]; [4]): < 5.00; IC50 (hERG; hERG Qpatch IC50 (nM), Table 1): ≥ 20000 nM; selectivity ratio (hERG; Table 1): ≥ 10 |
| CCOC(=O)C1=C(c2ccccc2)NC(=S)NC1c1ccccc1Br (stereo not drawn) | – | – | pIC50 (hTRPA1 [1]; [3]): ≥ 5.30; pIC50 (hTRPA1 [2]; [4]): < 5.00; IC50 (hERG; hERG Qpatch IC50 (nM), Table 1): > 10000 nM; selectivity ratio (hERG; Table 1): ≥ 5 |
| Cn1c(=O)c2c(ncn2CC(=O)Nc2ccc(Br)cc2)n(C)c1=O [Compound 202] | ≥ 5.30 | ≥ 5.30 | selective for TRPA1 over hERG (hERG; Table 2): ≥ 5 fold; IC50 (hERG; hERG IC50 (nM), Table 2): > 10000 nM |
| CCC(C)c1ccc(NC(=O)Cn2cnc3c2c(=O)n(C)c(=O)n3C)cc1 (stereo not drawn) [Compound 215] | ≥ 6.00 | ≥ 5.30 | selective for TRPA1 over NaV1.2 (hNaV1.2; Table 2): ≥ 55 fold; pIC50 (hNaV1.2; [7]): ≤ 4.52; IC50 (hERG; hERG IC50 (nM), Table 2): ≥ 10000 nM; selectivity ratio (hERG; Table 2): ≥ 25 |
| Cn1c(=O)c2c(ncn2CC(=O)Nc2ccc(Cl)c(Cl)c2)n(C)c1=O [Compound 217] | ≥ 6.00 | ≥ 5.00 | selective for TRPA1 over NaV1.2 (hNaV1.2; Table 2): ≥ 50 fold; pIC50 (hNaV1.2; [7]): ≤ 4.52; IC50 (hERG; hERG IC50 (nM), Table 2): ≥ 20000 nM; selectivity ratio (hERG; Table 2): ≥ 45 |
| Cn1c(=O)c2c(ncn2CC(=O)Nc2ccc(Br)cc2)n(C)c1=O [Compound 219] | ≥ 5.30 | ≥ 5.30 | selective for TRPA1 over NaV1.2 (hNaV1.2; Table 2): ≥ 25 fold; pIC50 (hNaV1.2; [7]): ≤ 4.52; selective for TRPA1 over hERG (hERG; Table 2): ≥ 15 fold; IC50 (hERG; hERG IC50 (nM), Table 2): ≥ 20000 nM |
| Cn1c(=O)c2c(ncn2CC(=O)Nc2cccc(C(F)(F)F)c2)n(C)c1=O [Compound 226] | ≥ 5.00 | ≥ 5.30 | selective for TRPA1 over NaV1.2 (hNaV1.2; Table 2): ≥ 5 fold; pIC50 (hNaV1.2; [7]): ≤ 4.52; IC50 (hERG; hERG IC50 (nM), Table 2): > 10000 nM; selectivity ratio (hERG; Table 2): ≥ 2 |
| Cn1c(=O)c2c(ncn2CC(=O)Nc2nc(-c3ccc(Br)cc3)cs2)n(C)c1=O [Compound 232] | ≥ 6.30 | ≥ 6.00 | selective for TRPA1 over NaV1.2 (hNaV1.2; Table 2): ≥ 75 fold; pIC50 (hNaV1.2; [7]): ≤ 4.52; IC50 (hERG; hERG IC50 (nM), Table 2): ≥ 30000 nM; selectivity ratio (hERG; Table 2): ≥ 75 |
| Cn1c(=O)c2c(ncn2CC(=O)Nc2nc3ccccc3s2)n(C)c1=O [Compound 239] | ≥ 5.30 | ≥ 5.30 | selective for TRPA1 over TRPV3 (hTRPV3): ≥ 4 fold; pIC50 (hTRPV3; read-out: hTRPV3 P1 inward IC50): ≥ 5.00 |
| COc1ccc(CCNC(=O)Cn2cnc3c2c(=O)n(C)c(=O)n3C)cc1 [Compound 261, 2-(1,3-Dimethyl-2,6-dioxo-1,2,3,6-tetrahydropurin-7-yl)-N-[2-(4-methoxy-phenyl)-ethyl]-acetamide] | ≥ 5.30 | ≥ 5.30 | – |
| Cn1c(=O)c2c(ncn2CC(=O)Nc2ccc(Oc3ccccc3)cc2)n(C)c1=O [Compound 262] | ≥ 6.30 | ≥ 5.30 | – |
| Cn1c(=O)c2c(ncn2CC(=O)Nc2ccc(C34CC5CC(CC(C5)C3)C4)cc2)n(C)c1=O [Compound 264] | ≥ 6.30 | ≥ 5.30 | – |
| Cc1ccc(Oc2ccc(NC(=O)Cn3cnc4c3c(=O)n(C)c(=O)n4C)cc2)cc1 [Compound 266] | ≥ 6.30 | ≥ 5.30 | – |
| Cn1c(=O)c2c(ncn2CC(=O)Nc2ccc(Cl)c(C(F)(F)F)c2)n(C)c1=O [Compound 267] | ≥ 6.00 | ≥ 6.00 | – |
| Cn1c(=O)c2c(ncn2CC(=O)NCCc2ccc(Cl)cc2)n(C)c1=O [Compound 268, N-[2-(4-Chlorophenyl)-ethyl]-2-(1,3-dimethyl-2,6-dioxo-1,2,3,6-tetrahydro-purin-7-yl)-acetamide] | ≥ 6.00 | < 5.00 | – |
| CCOC(=O)C1=C(c2ccccc2)NC(=S)NC1c1cc(O)ccc1Br (stereo not drawn) [drawing 49] | – | – | selective for TRPA1 over NaV1.2 (hNaV1.2; Table 1): ≥ 40 fold; pIC50 (hNaV1.2; Table 1, read-out: hNaV1.2 Qpatch IC50): ≤ 4.52; pIC50 (hTRPA1 [1]; [3]): ≥ 6.00; pIC50 (hTRPA1 [2]; [4]): ≥ 6.00; IC50 (hERG; hERG Qpatch IC50 (nM), Table 1): ≥ 20000 nM; selectivity ratio (hERG; Table 1): ≥ 30 |

Now from value to molecule, other results behind:

| pIC50 (hTRPA1 [1]; [5]) | pIC50 (hTRPA1 [2]; [6]) | Compound | also measured |
| --- | --- | --- | --- |
| ≥ 6.00 | ≥ 5.30 | CCCCc1ccc2nc(NC(=O)Cn3cnc4c3c(=O)n(C)c(=O)n4C)sc2c1 [Compound 269] | – |
| ≥ 6.30 | ≥ 5.30 | CCc1ccc(-c2csc(NC(=O)Cn3cnc4c3c(=O)n(C)c(=O)n4C)n2)cc1 [Compound 271] | IC50 (hERG; hERG IC50 (nM), Table 2): ≥ 30000 nM; selectivity ratio (hERG; Table 2): ≥ 150 |
| ≥ 6.00 | ≥ 5.30 | CCCc1ccc(-c2csc(NC(=O)Cn3cnc4c3c(=O)n(C)c(=O)n4C)n2)cc1 [Compound 274] | – |
| ≥ 5.00 | < 5.00 | Cc1ccc(F)cc1NC(=O)Cn1cnc2c1c(=O)n(C)c(=O)n2C [Compound 277] | – |
| ≥ 5.00 | ≥ 5.30 | Cn1c(=O)c2c(ncn2CC(=O)Nc2ccc(F)c(Cl)c2)n(C)c1=O [Compound 281] | – |
| ≥ 6.30 | ≥ 5.30 | CCOc1ccc(Oc2ccc(NC(=O)Cn3cnc4c3c(=O)n(C)c(=O)n4C)cc2)cc1 [Compound 284] | IC50 (hERG; hERG IC50 (nM), Table 2): ≤ 5000 nM; selectivity ratio (hERG; Table 2): ≥ 10 |
| ≥ 6.00 | ≥ 5.30 | Cn1c(=O)c2c(ncn2CC(=O)Nc2ccc(-c3ccccc3)cc2)n(C)c1=O [Compound 294] | – |
| ≥ 6.00 | ≥ 5.30 | Cn1c(=O)c2c(ncn2CC(=O)Nc2cccc(I)c2)n(C)c1=O [Compound 295] | – |
| ≥ 5.00 | ≥ 5.30 | CC(C(=O)Nc1ccc(Br)cc1)n1cnc2c1c(=O)n(C)c(=O)n2C (stereo not drawn) [Compound 296] | – |
| ≥ 5.00 | ≥ 5.30 | CCc1ccc(NC(=O)C(C)n2cnc3c2c(=O)n(C)c(=O)n3C)cc1 (stereo not drawn) [Compound 299] | – |
| ≥ 6.00 | ≥ 5.30 | CC(C(=O)Nc1ccc(Cl)cc1)n1cnc2c1c(=O)n(C)c(=O)n2C (stereo not drawn) [Compound 300] | – |
| ≥ 5.00 | < 5.00 | Cn1c(=O)c2c(ncn2CC(=O)Nc2c(Cl)cccc2Cl)n(C)c1=O [Compound 305] | – |
| ≥ 5.00 | < 5.00 | Cc1ccccc1CNC(=O)Cn1cnc2c1c(=O)n(C)c(=O)n2C [Compound 313] | – |
| ≥ 6.00 | < 5.00 | Cc1ccc(NC(=O)C(C)n2cnc3c2c(=O)n(C)c(=O)n3C)cc1 (stereo not drawn) [Compound 315] | – |
| ≥ 5.00 | ≥ 5.00 | Cn1c(=O)c2c(ncn2CC(=O)NCCSCc2ccccc2)n(C)c1=O [Compound 329] | – |
| ≥ 6.00 | ≥ 5.30 | Cn1c(=O)c2c(ncn2CC(=O)Nc2ccc(Br)cc2Cl)n(C)c1=O [Compound 333] | – |
| ≥ 5.30 | ≥ 5.30 | Cn1c(=O)c2c(ncn2CC(=O)Nc2ccc3c(c2)OC2(CCCC2)O3)n(C)c1=O [Compound 344] | – |
| < 5.00 | ≥ 5.30 | Cn1c(=O)c2c(ncn2CC(=O)NCC(C)(c2ccccc2)c2ccccc2)n(C)c1=O [Compound 348] | – |
| < 5.00 | < 5.00 | Cn1c(=O)c2c(ncn2CC(=O)Nc2ccccc2N2CCCC2)n(C)c1=O [Compound 350] | – |
| ≥ 5.30 | ≥ 5.30 | Cn1c(=O)c2c(ncn2CC(=O)Nc2ccc(Br)cc2F)n(C)c1=O [Compound 371] | – |
